# Assay results taken from patent publication US11963962B2, “Platelet count-agnostic methods of treating myelofibrosis” (Sierra Oncology, Inc., priority 2018, dated 2024).
# How the values were obtained:
# Type in all cases: in vivo, human
# myelofibrosis [1] = experiment: SIMPLIFY-1 Phase 3 trial: transfusion independence and TD to TI conversion; details: for TI rate Responders / TI rate proportion (Wilson 95% CI) / TI rate Absolute risk difference (Newcombe 95% CI): SIMPLIFY 1, week 24; for TI rate Absolute risk difference (Newcombe 95% CI) / TD to 12w rolling TI Absolute risk difference (Newcombe 95% CI) / TD to W24 TI Absolute risk difference (Newcombe 95% CI): MMB vs Control
# From the text: The improved outcome from MMB therapy that results from practicing the subject methods can be manifested as an improvement in one or more clinical endpoints (e.g., as described herein), such as anemia response, in spleen response and/or symptom response. By “anemia response” is meant an increase in the patient's hemoglobin level or a patient who was transfusion dependent becoming transfusion independent. Desirably, a minimum increase in hemoglobin of 0.5 g/dL, such as 1.0 g/dL 1.5 g/dL or 2.0 g/dL lasting a minimum of 8 weeks is achieved, which is the level of improvement specified in the International Working Group (IWG) consensus criteria. However, smaller, but still medically significant, increases in hemoglobin are also considered to be within the term “anemia response”. “Transfusion independence” is an anemia endpoint and refers to a subject who required no RBC transfusions over a 12 week period and had no hemoglobin levels less than 8 g/dL to 8.5 g/dL over the 12 week period. In some embodiments, the 12 week period of transfusion independence is the terminal 12 weeks of a 24 week study period. By red blood cell (RBC) transfusion independence rate at week 24 of a study is meant the proportion of subjects who were transfusion independent at week 24, excluding cases associated with clinically overt bleeding.
# In the SIMPLIFY-1 trial (NCT01969838), the efficacy and safety of MMB versus ruxolitinib (RUX) was studied in patients with myelofibrosis who were naïve to treatment with a JAK inhibitor and a platelet count of ≥50×10^9/L. Patients (N=432) with high risk or intermediate-2 risk or symptomatic intermediate-1 risk myelofibrosis received 24 weeks of treatment with 200 mg MMB once daily or 20 mg RUX twice a day (or per label), after which all patients could receive open-label momelotinib. […] The primary endpoint was a reduction by at least 35% in the spleen volume at 24 weeks compared with baseline.
# (§1) FIG. 8A: SIMPLIFY-1 study of MMB in a first line population previously untreated with JAKi. For SIMPLIFY-1, the goal was non-inferiority over ruxolitinib (RUX) (MMB: N=215 subjects, and RUX: N=217 subjects). FIG. 8B: SIMPLIFY-2 study of second line population of anemic or thrombocytopenic subjects previously treated with RUX (red blood cell (RBC) transfusions on RUX=64%. RUX dose adjustment for: thrombocytopenia=21%; anemia/hematoma=35%). For SIMPLIFY-2, the goal was superiority over best available treatment (BAT) (MMB: N=104 subjects, and BAT: N=52 subjects). In both SIMPLIFY-1 and SIMPLIFY: Primary endpoint: >=35% reduction in spleen volume at 24 weeks. Secondary endpoints: Total symptom score (TSS) response at 24 weeks. Effects on RBC transfusion requirements.
# The SIMPLIFY 1 clinical trial data was reanalyzed for subgroups of subjects having particular baseline platelet counts in the MMB versus RUX arms of the study.
# Patient data was analyzed according to the following baseline platelet count (PLT) subgroups and in particular according to the threshold PLT of 150×10^9/L: 1) PLT<50×10^9/L; 2) 50×10^9/L≤PLT<100×10^9/L; 3) 100×10^9/L≤PLT<150×10^9/L. The reanalyzed data is presented in Table 13 (SIMPLIFY 1). Selected data is also illustrated in the following figures.
# myelofibrosis [2] = experiment: SIMPLIFY-2 Phase 3 trial: splenic response rate (SRR); details: for SRR Absolute risk difference (Newcombe 95% CI): MMB vs Control
# From the text: (§2) In the SIMPLIFY-2 trial (NCT02101268), the efficacy and safety of MMB was studied in anemic or thrombocytopenic subjects with myelofibrosis who were previously treated with ruxolitinib (RUX). […] Specifically, anemic or thrombocytopenic myelofibrosis patients who had and were previously treated with (RUX) (for at least 28 days) were studied over 24 weeks for response to MMB versus best available treatment (BAT), primarily RUX (89% of patients) but alternatively no treatment or other standard interventions, after which period all patients could receive extended MMB treatment. Previously treated RUX patients who either required red blood cell transfusions or RUX dose reduction with grade 3 thrombocytopenia, anemia, and/or bleeding at grade 3 or worse, with palpable spleen of at least 5 cm and without grade 2 or greater peripheral neuropathy were included in the trial. There was no lower limit for the required baseline platelet count. The primary endpoint was a reduction by at least 35% in the spleen volume at 24 weeks compared with baseline.
# as §1
# The SIMPLIFY 2 clinical trial data was reanalyzed for subgroups of subjects having particular baseline platelet counts in the MMB versus BAT arms of the study.
# Patient data was analyzed according to the following baseline platelet count (PLT) subgroups and in particular according to a threshold PLT of 150×10^9/L: 1) PLT<50×10^9/L; 2) 50×10^9/L≤PLT<100×10^9/L; 3) 100×10^9/L≤PLT<150×10^9/L. The reanalyzed data is presented in Table 14 (SIMPLIFY 2).
# myelofibrosis [3] = experiment: SIMPLIFY-2 Phase 3 trial: overall survival
# From the text: as §2
# myelofibrosis [4] = experiment: Combined analysis of TI response in TD patients from SIMPLIFY-1, SIMPLIFY-2 and '1672; details: combined TD patients from SIMPLIFY-1, SIMPLIFY-2 and '1672 (n=152)
# From the text: This aggregate data is representative of a continuum of Intermediate/High Risk MF patients.
# [5] = SIMPLIFY 1, 50 ≤ PLT < 100 ×10^9/L
# [6] = SIMPLIFY 1, 100 ≤ PLT < 150 ×10^9/L
# [7] = SIMPLIFY-1, switch from Transfusion Dependent to Independent
structure (smiles),measurement,setting,value
"Cl.N#CCNC(=O)c1ccc(-c2ccnc(Nc3ccc(N4CCOCC4)cc3)n2)cc1 [MMB, N-(cyanomethyl)-4-(2-(4-morpholinophenylamino)pyrimidin-4-yl)benzamide]",patients with transfusion independence promoted and maintained (TI rate),myelofibrosis [1]; SIMPLIFY 1,66%
same,TI rate Responders,myelofibrosis [1]; 50 ≤ PLT < 100 ×10^9/L,11
same,TI rate proportion (Wilson 95% CI),myelofibrosis [1]; 50 ≤ PLT < 100 ×10^9/L,0.61
same,TI rate Absolute risk difference (Newcombe 95% CI),myelofibrosis [1]; 50 ≤ PLT < 100 ×10^9/L,0.22
same,TI rate Responders,myelofibrosis [1]; 100 ≤ PLT < 150 ×10^9/L,18
same,TI rate proportion (Wilson 95% CI),myelofibrosis [1]; 100 ≤ PLT < 150 ×10^9/L,0.62
same,TI rate Absolute risk difference (Newcombe 95% CI),myelofibrosis [1]; 100 ≤ PLT < 150 ×10^9/L,0.17
same,TI rate Responders,myelofibrosis [1]; ITT,143
same,TI rate proportion (Wilson 95% CI),myelofibrosis [1]; ITT,0.67
same,TI rate Absolute risk difference (Newcombe 95% CI),myelofibrosis [1]; ITT,0.17
same,TD to 12w rolling TI Responders,myelofibrosis [1]; [5],4
same,TD to 12w rolling TI proportion (Wilson 95% CI),myelofibrosis [1]; [5],0.40
same,TD to W24 TI Responders,myelofibrosis [1]; [5],5
same,TD to W24 TI proportion (Wilson 95% CI),myelofibrosis [1]; [5],0.50
same,TD to 12w rolling TI Absolute risk difference (Newcombe 95% CI),myelofibrosis [1]; [5],0.22
same,TD to W24 TI Absolute risk difference (Newcombe 95% CI),myelofibrosis [1]; [5],0.32
same,TD to 12w rolling TI Responders,myelofibrosis [1]; [6],5
same,TD to 12w rolling TI proportion (Wilson 95% CI),myelofibrosis [1]; [6],0.45
same,TD to W24 TI Responders,myelofibrosis [1]; [6],4
same,TD to W24 TI proportion (Wilson 95% CI),myelofibrosis [1]; [6],0.36
same,TD to 12w rolling TI Absolute risk difference (Newcombe 95% CI),myelofibrosis [1]; [6],0.15
same,TD to W24 TI Absolute risk difference (Newcombe 95% CI),myelofibrosis [1]; [6],0.21
same,TD to 12w rolling TI Responders,"myelofibrosis [1]; SIMPLIFY 1, ITT",19
same,TD to 12w rolling TI proportion (Wilson 95% CI),"myelofibrosis [1]; SIMPLIFY 1, ITT",0.36
same,TD to W24 TI Responders,"myelofibrosis [1]; SIMPLIFY 1, ITT",16
same,TD to W24 TI proportion (Wilson 95% CI),"myelofibrosis [1]; SIMPLIFY 1, ITT",0.30
same,TD to 12w rolling TI Absolute risk difference (Newcombe 95% CI),"myelofibrosis [1]; SIMPLIFY 1, ITT",0.11
same,TD to W24 TI Absolute risk difference (Newcombe 95% CI),"myelofibrosis [1]; SIMPLIFY 1, ITT",0.13
same,Week 24 TI rate,"myelofibrosis [1]; SIMPLIFY 1, ITT, all patients",67%
same,Week 24 TI rate,"myelofibrosis [1]; SIMPLIFY 1, ITT, platelets 50-100 (subgroup 2)",61%
same,Week 24 TI rate,"myelofibrosis [1]; SIMPLIFY 1, ITT, platelets 100-150 (subgroup 3)",62%
same,Week 24 TI rate,"myelofibrosis [1]; SIMPLIFY 1, baseline TSS ≥ 6, all patients",67%
same,Week 24 TI rate,"myelofibrosis [1]; SIMPLIFY 1, baseline TSS ≥ 6, platelets 50-100 (subgroup 2)",64%
same,Week 24 TI rate,"myelofibrosis [1]; SIMPLIFY 1, baseline TSS ≥ 6, platelets 100-150 (subgroup 3)",68%
same,Week 24 TI rate,"myelofibrosis [1]; SIMPLIFY 1, baseline TSS ≥ 10, all patients",67%
same,Week 24 TI rate,"myelofibrosis [1]; SIMPLIFY 1, baseline TSS ≥ 10, platelets 50-100 (subgroup 2)",64%
same,Week 24 TI rate,"myelofibrosis [1]; SIMPLIFY 1, baseline TSS ≥ 10, platelets 100-150 (subgroup 3)",68%
same,≥8 week transfusion independence rate,myelofibrosis [1]; [7],58.5%
same,≥12 week transfusion independence rate,myelofibrosis [1]; [7],49.1%
same,SRR Responders,myelofibrosis [2]; 50 ≤ PLT < 100 ×10^9/L,1
same,SRR proportion (Wilson 95% CI),myelofibrosis [2]; 50 ≤ PLT < 100 ×10^9/L,0.03
same,SRR Absolute risk difference (Newcombe 95% CI),myelofibrosis [2]; 50 ≤ PLT < 100 ×10^9/L,−0.02
same,SRR Responders,myelofibrosis [2]; 100 ≤ PLT < 150 ×10^9/L,3
same,SRR proportion (Wilson 95% CI),myelofibrosis [2]; 100 ≤ PLT < 150 ×10^9/L,0.13
same,SRR Absolute risk difference (Newcombe 95% CI),myelofibrosis [2]; 100 ≤ PLT < 150 ×10^9/L,0.03
same,SRR Responders,myelofibrosis [2]; ITT,7
same,SRR proportion (Wilson 95% CI),myelofibrosis [2]; ITT,0.07
same,SRR Absolute risk difference (Newcombe 95% CI),myelofibrosis [2]; ITT,0.01
same,SRR Responders,myelofibrosis [2]; PLT < 50 ×10^9/L,0
same,SRR proportion (Wilson 95% CI),myelofibrosis [2]; PLT < 50 ×10^9/L,0.00
same,mOS,myelofibrosis [3],28 months
same,≥8 week transfusion independence rate,myelofibrosis [4],48.7%
same,≥12 week transfusion independence rate,myelofibrosis [4],44.1%
